Our source for the IC50 and LD50 values is patent publication US5204364A, “N-imidazolyl- and N-imidazolylmethyl-derivatives of substituted bicyclic compounds” (Farmitalia Carlo Erba, S.r.l., priority 1988, dated 1993).

Structures are written as SMILES. Read-outs that look alike come from different tables or passages of the source. Bounds are passed on as bounds.

One data set deals with TxA2 synthase. Kind of data set: TxB2 synthesis (TxA2 synthase activity) in whole blood of normal rats during clotting, in vitro. The class given is cell-based, rat (Sprague Dawley). To be noted: Rattus norvegicus, read-out: In vitro effect on TxB2 synthesis in normal rats, IC50. On the procedure:
The compounds of formula (I) were for example tested for their ability to inhibit TxA2 synthase activity (as reflected by TxB2 generated in whole blood during clotting) in vitro in the rat.
The effect of a representative group of compounds according to the present invention on TxB2 synthesis was evaluated in comparison with known products in whole blood of normal Sprague Dawley rats (Charles River Italy). Blood was withdrawn from the abdominal aorta of the animals under light ether anaesthesia. The blood was immediately divided in portions of 0.5 ml and distributed in glass tubes each containing a concentration of the test compound, or of the reference compounds.
Samples were then allowed to clot for 1 hour at 37° C., centrifuged at 3000 rpm for 10 min, serum collected and stored at -20° C. until assayed.

Data set [1] in a line: orientative acute toxicity, single oral administration. The conditions noted are these: in vivo, fasted mice and rats, assessed on the seventh day. How it is done:
The toxicity of the compounds of the invention is negligible, therefore they can be safely used in therapy. Mice and rats which had been deprived of food for nine hours were treated orally with single administrations of increasing doses of compounds of the invention, then housed and normally fed. The orientative acute toxicity (LD50) was assessed on the seventh day after the treatment and e.g. in the compound added as FCE 26572, was higher than 800 mg/kg.

Setting [2] is: whole blood, clotted 1 hour at 37° C., TxB2 by RIA, limits for p = 0.95.

For the compound `CC1=C(Cn2ccnc2)CCc2ccc(C(=O)O)cc21` [FCE 26333, 5,6-dihydro-7-(1H-imidazol-1-ylmethyl)-8-methyl-2-naphthalenecarboxylic acid], the 50% inhibitory concentration (IC50) in the data set on TxA2 synthase (setting [2]) stood at 43 nM. Same read-out and setting: the same measure for `O=C(O)c1ccc2c(c1)C=C(n1ccnc1)CC2` [FCE 22178, 5,6dihydro-7-(1H-imidazol-1-yl)-2-naphthalenecarboxylic acid, reference compound]: 1000 nM; for `CC1=C(n2ccnc2)CCc2ccc(C(=O)O)cc21` [FCE 25672, 5,6-dihydro-7-(1H-imidazol-1-yl)-8-methyl-2-naphthalenecarboxylic acid]: 290 nM; for `C=C1c2cc(C(=O)O)ccc2CCC1n1ccnc1` (stereo not drawn) [FCE 26252, 5,6,7,8-tetrahydro-7-(1H-imidazol-1-yl)-8-methylene-2-naphthalenecarboxylic acid]: 740 nM.

On to `CC(=O)Oc1ccccc1C(=O)O` [ASA, Acetyl salicyclic acid, reference compound], for which the IC50 with TxA2 synthase (1 h) came to 31000 nM. The compound `CC1=C(n2ccnc2)CCc2ccc(C(=O)O)cc21` [FCE 26572] showed an LD50 at 168 h in data set [1] greater than 800 mg/kg.

As usually defined, the IC50 is the concentration needed to halve the response being measured. What is called LD50 is the dose expected to kill half of the subjects tested. Lower therefore signals greater toxicity.
